Laboratory results taken from patent publication US11136311B2, “Heteroaromatic derivatives as NIK inhibitors” (Janssen Pharmaceutica NV, priority 2016, dated 2021).

How the values were obtained:
[1] = molecular target: recombinant human NF-kappaB-inducing kinase (NIK/MAP3K14) (Homo sapiens (Human), UniProt Q99558); assay: Inhibition of auto-phosphorylation of recombinant human NIK/MAP3K14 activity (AlphaScreen); assay type: biochemical; settings: averaged values over all measurements on all batches
recombinant human NF-kappaB-inducing kinase (NIK/MAP3K14), sequence (Q99558 whole entry): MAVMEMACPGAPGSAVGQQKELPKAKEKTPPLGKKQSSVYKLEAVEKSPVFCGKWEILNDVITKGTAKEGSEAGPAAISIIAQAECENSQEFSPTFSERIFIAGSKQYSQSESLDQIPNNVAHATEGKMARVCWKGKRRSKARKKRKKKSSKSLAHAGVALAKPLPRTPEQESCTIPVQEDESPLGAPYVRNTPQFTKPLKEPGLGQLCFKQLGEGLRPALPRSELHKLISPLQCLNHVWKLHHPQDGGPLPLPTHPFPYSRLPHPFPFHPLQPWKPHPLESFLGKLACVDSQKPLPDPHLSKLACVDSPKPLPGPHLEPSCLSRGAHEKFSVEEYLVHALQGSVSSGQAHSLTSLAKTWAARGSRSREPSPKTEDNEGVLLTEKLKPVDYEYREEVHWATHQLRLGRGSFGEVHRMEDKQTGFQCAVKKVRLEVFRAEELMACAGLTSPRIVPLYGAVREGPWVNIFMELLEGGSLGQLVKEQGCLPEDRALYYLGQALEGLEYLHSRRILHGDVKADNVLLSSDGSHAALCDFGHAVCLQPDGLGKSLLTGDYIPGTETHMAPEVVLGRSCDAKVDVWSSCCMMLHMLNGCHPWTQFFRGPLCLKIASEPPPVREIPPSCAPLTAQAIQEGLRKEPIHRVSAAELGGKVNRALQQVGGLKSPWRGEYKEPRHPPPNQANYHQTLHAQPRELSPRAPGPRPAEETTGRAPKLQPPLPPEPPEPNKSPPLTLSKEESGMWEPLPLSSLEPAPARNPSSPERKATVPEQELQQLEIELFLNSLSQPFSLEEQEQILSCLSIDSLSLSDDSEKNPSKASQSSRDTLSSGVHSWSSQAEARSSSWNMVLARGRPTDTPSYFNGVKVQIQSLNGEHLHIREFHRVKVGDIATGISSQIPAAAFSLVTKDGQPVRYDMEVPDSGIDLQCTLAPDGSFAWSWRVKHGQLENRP
How it was run: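 AlphaScreen read-out, using anti-phospho-IKK Ser176/180 antibody, tracked NIK autophosphorylation after 1 h at 25° C. Reactions held 0.2 nM GST-NIK, 25 microM ATP and compound in 1% DMSO, Tris pH 7.5 buffer. IC50 fitted sigmoidally to blank-subtracted inhibition data.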

[2] = tested on: P-IKKα levels in L363 cells; assay: Effect of compounds on P-IKKα levels in L363 (NIK translocated multiple myeloma) cells; assay type: cell-based, human; settings: Homo sapiens, L-363, L363 cells; averaged values; read-out: Inhibition of pIKKα_L-363 (IC50 (nM))
Method: Effect of compounds on P-IKKα levels in L363 (NIK translocated multiple myeloma) cells
All compounds tested were dissolved in DMSO and further dilutions were made in culture medium. Final DMSO concentration was 1% (v/v) in cell assays. The human L363 cells (ATCC) were cultured in RPMI 1640 medium supplemented with GlutaMax and 10% fetal calf serum (PAA). Cells were routinely maintained at densities of 0.2×10^6 cells per ml-1×10^6 cells per ml at 37° C. in a humidified 5% CO2 atmosphere. Cells were passaged twice a week splitting back to obtain the low density. Cells were seeded in 96 well plates (Nunc 167008) at 2×10^6 per ml media in a volume of 75 μl per well plus 25 μl 1 μg/ml recombinant human B-cell activating factor (BAFF/BLyS/TNFSF13B). Seeded cells were incubated at 37° C. in a humidified 5% CO2 atmosphere for 24 hr. Drugs and/or solvents were added (20 μl) to a final volume of 120 μl. Following 2 hr treatment plates were removed from the incubator and cell lysis was achieved by the addition of 30 μl 5× lysis buffer followed by shaking on a plate shaker at 4° C. for 10 min. At the end of this incubation lysed cells were centrifuged at 800×g for 20 min at 4° C. and the lysate was assessed for P-IKKα levels by sandwich immuno-assay carried out in anti-rabbit antibody coated Mesoscale plates. Within an experiment, the results for each treatment were the mean of 2 replicate wells. For initial screening purposes, compounds were tested using an 8 point dilution curve (serial 1:3 dilutions). For each experiment, controls (containing MG132 and BAFF but no test drug) and a blank incubation (containing MG132 and BAFF and 10 μM ADS125117, a test concentration known to give full inhibition) were run in parallel. The blank incubation value was subtracted from all control and sample values. To determine the IC50 a sigmoidal curve was fitted to the plot of % inhibition of control P-IKKα levels versus Log10 compound concentration.

[3] = tested on: JJN-3 cells; assay: Antiproliferative activity on JJN-3 (NIK translocated) multiple myeloma cells (CellTiter-Glo); assay type: cell-based, human; settings: Homo sapiens, JJN-3, 96 h, JJN-3 (NIK translocated) cells, 96 hr; averaged values; read-out: JJN-3 Proliferation inhibition (IC50 (nM))
How it was run: (§1)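 Viability was read by CellTiter-Glo after 96 hr compound exposure (9-point, 1:3 serial dilutions; 0.3% DMSO final). JJN-3 and KMS12-BM cells were seeded at 15000 and 20000 per well respectively in RPMI 1640/10% FCS; blank-subtracted signals were given as percent of drug-free controls.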

[4] = tested on: KMS12-BM cells; assay: Antiproliferative activity on KMS12-BM (NIK WT) multiple myeloma cells (CellTiter-Glo); assay type: cell-based, human; settings: Homo sapiens, KMS-12-BM, 96 h, KMS12-BM (NIK WT) cells, 96 hr; averaged values; read-out: KMS-12 Proliferation inhibition (IC50 (nM))
How it was run: as §1

Row | SMILES | IC50 [1] | IC50 [2] | IC50 [3] | IC50 [4]
1 | CNC(=O)c1cc(Nc2nccc(-c3cc(C#N)c4c(c3)[C@@](C)(CO)CN4)n2)nn1C(C)C [Compound 103] | 2.6 nM | 4 nM | 71 nM | 3020 nM
2 | COCCCn1ncc(Nc2nccc(-c3cc(C#N)c4c(c3)[C@@](C)(CO)CN4)n2)c1CCC(C)C [Compound 104] | 3.4 nM | 15 nM | 117 nM | > 10000 nM
3 | COCCCn1cc(Nc2nccc(-c3cc(C#N)c4c(c3)[C@@](C)(CO)CN4)n2)c(CCC(C)C)n1 [Compound 105] | 5.5 nM | 20 nM | 447 nM | > 10000 nM
4 | CC(C)Cn1nc(Cl)cc1Nc1nccc(-c2cc(C#N)c3c(c2)[C@@](C)(CO)CN3)n1 [Compound 107] | 3.8 nM | 9 nM | 55 nM | 1350 nM
5 | Cc1cc(Nc2nccc(-c3cc(C#N)c4c(c3)[C@@](C)(CO)CN4)n2)n(CCC(C)(C)O)n1 [Compound 108] | 4.1 nM | 14 nM | ~724 nM | ~3160 nM
6 | Cc1cc(Nc2nccc(-c3cc(C#N)c4c(c3)[C@@](C)(CO)CN4)n2)nn1CCC(C)(C)O [Compound 109] | 3.6 nM | 11 nM | 50 nM | 468 nM
7 | CC(C)CCn1nc(CO)cc1Nc1nccc(-c2cc(C#N)c3c(c2)[C@@](C)(CO)CN3)n1 [Compound 110] | 3 nM | 4 nM | 138 nM | 2040 nM
8 | Cc1cc(Nc2nccc(-c3cc(C#N)c4c(c3)[C@@](C)(CO)CN4)n2)n(CC2(C)COC2)n1 [Compound 111] | 9.3 nM | ~331 nM | 355 nM | 5130 nM
9 | COCCCn1nc(Cl)cc1Nc1nccc(-c2cc(C#N)c3c(c2)[C@@](C)(CO)CN3)n1 [Compound 112] | 2.9 nM | 13 nM | 69 nM | 8910 nM
10 | C[C@]1(CO)CNc2c(C#N)cc(-c3ccnc(Nc4cc(Cl)nn4C[C@@H]4CCCO4)n3)cc21 [Compound 113] | 6.2 nM | 42 nM | 69 nM | 3020 nM
11 | C[C@]1(CO)CNc2c(C#N)cc(-c3ccnc(Nc4cc(Cl)nn4C[C@H]4CCCO4)n3)cc21 [Compound 114] | 6 nM | 30 nM | 151 nM | 1070 nM
12 | C[C@]1(CO)CNc2c(C#N)cc(-c3ccnc(Nc4cc(Cl)nn4CCC4CC4)n3)cc21 [Compound 115] | 4.6 nM | 10 nM | 62 nM | 4270 nM
13 | CC(C)CCc1c(Nc2nccc(-c3cc(C#N)c4c(c3)[C@@](C)(CO)CN4)n2)cnn1Cc1nccn1C [Compound 117] | 6 nM | 11 nM | 269 nM | > 10000 nM
14 | CN(C(=O)Cn1nc(Cl)cc1Nc1nccc(-c2cc(C#N)c3c(c2)[C@@](C)(CO)CN3)n1)C1CC1 [Compound 118] | 4 nM | 33 nM | 447 nM | > 10000 nM
15 | CC(C)Cn1nc(P(C)(C)=O)cc1Nc1nccc(-c2cc(C#N)c3c(c2)[C@@](C)(CO)CN3)n1 [Compound 119] | 9.6 nM | 43 nM | 3160 nM | > 10000 nM
16 | CC(C)CCc1c(Nc2nccc(-c3cc(C#N)c4c(c3)[C@@](C)(CO)CN4)n2)cnn1Cc1cncn1C [Compound 120] | ~29 nM | 3 nM | 126 nM | 5010 nM
17 | CC(C)CCc1c(Nc2nccc(-c3cc(C#N)c4c(c3)[C@@](C)(CO)CN4)n2)cnn1C[C@@H]1COCCO1 [Compound 121] | 5 nM | 25 nM | 282 nM | > 10000 nM
18 | Cc1nn(C2CCN(C)CC2)cc1Nc1nccc(-c2cc(C#N)c3c(c2)[C@@](C)(CO)CN3)n1 [Compound 122] | 6.8 nM | 1020 nM | 479 nM | ~1660 nM
